B1: hCES1b (Homo sapiens) (protein)
chain: GHPSSPPVVDTVHGKVLGKFVSLEGFAQPVAIFLGIPFAKPPLGPLRFTPPQPAEPWSFVKNATSYPPMCTQDPKAGQLLSELFTNRKENIPLKLSEDCLYLNIYTPADLTKKNRLPVMVWIHGGGLMVGAASTYDGLALAAHENVVVVTIQYRLGIWGFFSTGDEHSRGNWGHLDQVAALRWVQDNIASFGGNPGSVTIFGESAGGESVSVLVLSPLAKNLFHRAISESGVALTSVLVKKGDVKPLAEQIAITAGCKTTTSAVMVHCLRQKTEEELLETTLKMKFLSLDLQGDPRESQPLLGTVIDGMLLLKTPEELQAERNFHTVPYMVGINKQEFGWLIPMQLMSYPLSEGQLDQKTAMSLLWKSYPLVCIAKELIPEATEKYLGGTDDTVKKKDLFLDLIADVMFGVPSVIVARNHRDAGAPTYMYEFQYRPSFSSDMKPKTVIGDHGDELFSVFGAPFLKEGASEEEIRLSKMVMKFWANFARNGNPNGEGLPHWPEYNQKEGYLQIGANTQAAQKLKDKEVAFWTNLFAKKAVEKPPQTEHIEL
B2: hCES1c (Homo sapiens) (protein)
chain: GHPSSPPVVDTVHGKVLGKFVSLEGFAQPVAIFLGIPFAKPPLGPLRFTPPQPAEPWSFVKNATSYPPMCTQDPKAGQLLSELFTNRKENIPLKLSEDCLYLNIYTPADLTKKNRLPVMVWIHGGGLMVGAASTYDGLALAAHENVVVVTIQYRLGIWGFFSTGDEHSRGNWGHLDQVAALRWVQDNIASFGGNPGSVTIFGESAGGESVSVLVLSPLAKNLFHRAISESGVALTSVLVKKGDVKPLAEQIAITAGCKTTTSAVMVHCLRQKTEEELLETTLKMKFLSLDLQGDPRESQPLLGTVIDGMLLLKTPEELQAERNFHTVPYMVGINKQEFGWLIPMLMSYPLSEGQLDQKTAMSLLWKSYPLVCIAKELIPEATEKYLGGTDDTVKKKDLFLDLIADVMFGVPSVIVARNHRDAGAPTYMYEFQYRPSFSSDMKPKTVIGDHGDELFSVFGAPFLKEGASEEEIRLSKMVMKFWANFARNGNPNGEGLPHWPEYNQKEGYLQIGANTQAAQKLKDKEVAFWTNLFAKKAVEKPPQTEHIEL

Tests used:
[1] = Initial activity screening of AB-PINACA (Thomsen et al. conditions) with pHLM; type: in vitro ADME, human; settings: 10 µM, 20 min, 37 °C, 1 µg/µL protein
Protocol: (§1) The initial activity screening with AB-PINACA was conducted as described by Thomsen et al. with minor modifications (Thomsen et al. [2015]). […] All incubations were done in duplicate. […] Afterwards, 110 µL of 0.1% formic acid in water was added. […] Furthermore, 1 µL was analyzed by liquid chromatography–high-resolution tandem mass spectrometry (LC–HRMS/MS, apparatus details given in the Electronic Supplementary Material).
(§2) Data analysis was based on peak areas.

[2] = Initial activity screening of AB-PINACA (Thomsen et al. conditions) with pHLS9; type: in vitro ADME, human; settings: 10 µM, 20 min, 37 °C, 1 µg/µL protein
Protocol: as §1, §2

[3] = molecular target: T1, hCES1b (Homo sapiens, UniProt P23141); assay: Initial activity screening of AB-PINACA (Thomsen et al. conditions) with hCES1b; type: in vitro ADME; set-up: purchased Corning (Amsterdam, The Netherlands); host or cells: baculovirus transfected insect cells; settings: 10 µM, 20 min, 37 °C, 0.1 µg/µL protein
T1 sequence (P23141 18-567): B1 chain
Protocol: as §1, §2

[4] = molecular target: T2, hCES1c (Homo sapiens, UniProt P23141); assay: Initial activity screening of AB-PINACA (Thomsen et al. conditions) with hCES1c; type: in vitro ADME; set-up: purchased Corning (Amsterdam, The Netherlands); host or cells: baculovirus transfected insect cells; settings: 10 µM, 20 min, 37 °C, 0.1 µg/µL protein
T2 sequence (P23141 18-566 isoform P23141-3 limits assumed): B2 chain
Protocol: as §1, §2

[5] = molecular target: T3, hCES2 (Homo sapiens, UniProt O00748); assay: Initial activity screening of AB-PINACA (Thomsen et al. conditions) with hCES2; type: in vitro ADME; set-up: purchased Corning (Amsterdam, The Netherlands); host or cells: baculovirus transfected insect cells; settings: 10 µM, 20 min, 37 °C, 0.1 µg/µL protein
T3 sequence (O00748 27-559): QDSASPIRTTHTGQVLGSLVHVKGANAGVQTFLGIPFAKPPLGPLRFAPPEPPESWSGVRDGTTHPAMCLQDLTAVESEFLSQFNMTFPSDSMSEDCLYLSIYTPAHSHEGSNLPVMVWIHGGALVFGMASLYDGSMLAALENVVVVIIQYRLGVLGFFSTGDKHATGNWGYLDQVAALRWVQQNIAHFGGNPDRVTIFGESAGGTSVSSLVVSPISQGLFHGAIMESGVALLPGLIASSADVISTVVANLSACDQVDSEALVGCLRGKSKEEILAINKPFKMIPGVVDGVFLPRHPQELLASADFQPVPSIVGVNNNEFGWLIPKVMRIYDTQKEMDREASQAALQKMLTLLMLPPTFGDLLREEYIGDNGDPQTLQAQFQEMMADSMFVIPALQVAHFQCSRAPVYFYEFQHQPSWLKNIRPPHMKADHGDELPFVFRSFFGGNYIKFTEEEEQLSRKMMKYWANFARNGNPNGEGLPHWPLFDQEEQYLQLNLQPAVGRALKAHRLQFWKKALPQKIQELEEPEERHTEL
Protocol: as §1, §2

[6] = substrate: COC(=O)C(Cc1ccccc1)NC(=O)c1cn(CCCCCF)c2ccccc12; assay: not read; settings: other: ± S.D.; Michaelis–Menten fit, conditions of Table 1; pH 7.4
[7] = substrate: C=CCCCn1cc(C(=O)N[C@H](C(=O)OC)C(C)C)c2ccccc21; assay: not read; settings: other: ± S.D.; Michaelis–Menten fit, conditions of Table 1; pH 7.4

Row | Molecule | Relative amount of carboxylic acid metabolite formed (head group carboxamide hydrolysis), pHLM ([1]; LC–HRMS/MS) | Metabolite detection by LC–ITMS, pHLM ([1]; LC–ITMS) | Relative amount of carboxylic acid metabolite formed (head group carboxamide hydrolysis), pHLS9 ([2]; LC–HRMS/MS) | Metabolite detection by LC–ITMS, pHLS9 ([2]; LC–ITMS) | Relative amount of carboxylic acid metabolite formed (head group carboxamide hydrolysis), hCES1b ([3]; LC–HRMS/MS) | Metabolite detection by LC–ITMS, hCES1b ([3]; LC–ITMS) | Metabolite detection by LC–ITMS, hCES1c [4] | Metabolite detection by LC–ITMS, hCES2 [5] | Km [6] | Km [7]
1 | CCCCCn1nc(C(=O)N[C@H](C(N)=O)C(C)C)c2ccccc21 [AB-PINACA, (S)-N-(1-amino-3-methyl-1-oxobutan-2-yl)-1-pentyl-1H-indazole-3-carboxamide] | 4.3% | no AB-PINACA metabolites were detected | 2.2% | no AB-PINACA metabolites were detected | 1.4% | no AB-PINACA metabolites were detected | no AB-PINACA metabolites were detected | no AB-PINACA metabolites were detected |  | 
2 | B1 |  |  |  |  |  |  |  |  | 88.9 ± 18 µM | 
3 | B2 |  |  |  |  |  |  |  |  | 23.2 ± 4.1 µM | 203 ± 43 µM

Source: article PMC9352624, “Going deeper into the toxicokinetics of synthetic cannabinoids: in vitro contribution of human carboxylesterases” (Archives of Toxicology, 2022)
